# Experimental data published in patent US20260009085A1, “METHODS AND COMPOSITIONS FOR THE DIAGNOSIS AND TREATMENT OF CANCER” (Chengdu Anticancer Bioscience, Ltd., priority 2023, published 2026).
# Experiments:
# [1] = system: Calu6 tumor model; assay: Calu6 xenograft tumor model (tumor growth, body weight, tumor weight, Ki-67); format: in vivo; details: Calu6 xenografted mice
# Procedure: Xenografted mice were treated with novel antimitotic compounds LXY013, LW33R, and LG157, respectively (FIG. 4A). p-values in FIG. 4A are from Logrank analysis. Tumor growth curves and body weight over the course of the experiments are depicted with vehicle control in black, test compounds in gray (n=6). FIG. 4B is a set of images of tumors and a graph depicting tumor weight at an end-point of 20 days. FIG. 4C is a set of photomicrographs of immunohistochemistry analyses and its quantification, respectively, of Ki-67 expression in xenografts. For LG157, * is p<0.05. p-values in FIG. 4B and FIG. 4C are from multi-parametric analysis. **** is p<0.0001.
# Additionally, the volume and weight of tumors in response to the compounds described herein were assessed (FIG. 4A-4B) as well as immunohistochemistry analyses and quantification of Ki-67 expression in xenografts (FIG. 4C).
# [2] = system: RPE-NEO; assay: Model cell screen: CPPC complex localization and cell death, RPE-NEO; format: cell-based, human
# Procedure: In the model screening cell lines, there was an indistinguishable threshold concentration of approximately 20 nM, which was required to show disruption of the CPPC complex by IHC at the spindle midzone and equatorial cortex of anaphase cells, indicating a failure in CPPC relocation. This similarity in the threshold effective concentration for target inhibition is, therefore, not influenced by overexpression of MYC. […] Similar data with other MYC-SL compounds were observed.
# [3] = system: NCI-H23 cells; assay: Immunofluorescent analysis of AURKB mis-localization (6 hours) and polyploidy (72 hours); format: cell-based, human; details: 6 hours or 72 hours
# Procedure: The proportion of cells with AURKB mis-localization was measured to assess the function of MKLP2 (FIG. 3C). Immunofluorescent analysis of localization of kinetochore proteins AURKB and CREST was determined. Scale bar=10 μm. FIG. 3D is an immunoblot depicting the results of an experiment in which NCI-H23 cells were transiently transfected with MKLP2 siRNA. MKLP2 knockdown efficiency was assayed by immunoblot blot analysis 72 hours after transfection. FIG. 3E are graphs depicting the proportion of cells with AURKB mis-localization after treatment with MKLP2 siRNA after 6 hours of exposure and the proportion of polyploid cells after 72 hours.
# Compounds were considered positive for the induction of polyploidy when the percentage of polyploid cells in the interphase population, was ≥5% (with deduction of basal level of polyploid cells) at 72 hours after initiation of treatment (FIG. 3A right panel, FIG. 3B right panel, and FIG. 3E right panel). Polyploid cells were defined as those with multinucleated nuclei, visible upon DAPI staining. The basal level of spontaneous polyploid cells with the screening cell line was less than 1%.
# Immunofluorescent (IF) analysis was used to assess enzymatic activity (FIG. 3A left panel, FIG. 3B left panel, and FIG. 3E left panel) and localization of mitotic regulators. […]
smiles,measurement,setting,value
CNC(=O)c1cc(OC)cc(Oc2ncccc2-c2ccnc(C)c2)c1 [LG157],tumor growth,[1],inhibition of tumor growth
same,cell death,[2],not RPE-NEO cells
same,threshold concentration required to show disruption of the CPPC complex,[2]; IHC at spindle midzone and equatorial cortex of anaphase cells,approximately 20 nM
same,"mitotic defects (AURKB mis-localization, polyploidy)",[3],"elicit mitotic defects similar to those seen in cells treated with a known mitotic disruptor, paprotrain"
